# Where two headings read alike, the source gives them in different places.
# Tests used:
# [1] = molecular target: T1, human cloned 5-HT2A receptor, expressed in L929 cells (Homo sapiens, UniProt P28223); assay: In vitro binding affinity for 5-HT2A receptor ([125I]R91150 radioligand binding)
# T1 construct: expressed in transfected cells; host or cells: L929 cells
# In short: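 Competition radioligand binding to human cloned 5-HT2A receptor expressed in L929 cells, using [125I]R91150 with test compound at various concentrations. At equilibrium, receptor-bound radioactivity was separated from free and counted. Affinity reflects inhibition of radioligand binding.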
# [2] = molecular target: T2, human Dopamine D2L receptor (Homo sapiens, UniProt P14416); assay: In vitro binding affinity for human D2L receptor ([3H]Spiperone binding); settings: human D2L receptor-transfected CHO cell membranes; for IC50: read-out: D2L pIC50 (converted)
# T2 construct: expressed in transfected cells; host or cells: CHO cells
# T2 sequence (P14416 whole entry): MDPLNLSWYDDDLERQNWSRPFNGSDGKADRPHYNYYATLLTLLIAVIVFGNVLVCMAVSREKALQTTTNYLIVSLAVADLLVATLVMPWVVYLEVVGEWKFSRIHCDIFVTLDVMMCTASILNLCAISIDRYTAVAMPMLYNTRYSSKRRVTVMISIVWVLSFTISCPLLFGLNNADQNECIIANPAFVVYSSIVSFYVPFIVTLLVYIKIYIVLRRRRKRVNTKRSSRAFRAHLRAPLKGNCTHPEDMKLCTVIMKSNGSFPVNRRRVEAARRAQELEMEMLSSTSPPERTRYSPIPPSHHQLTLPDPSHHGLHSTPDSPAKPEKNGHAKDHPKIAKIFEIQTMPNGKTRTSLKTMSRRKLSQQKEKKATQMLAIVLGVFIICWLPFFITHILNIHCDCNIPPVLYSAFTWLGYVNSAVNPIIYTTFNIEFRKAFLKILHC
# In short: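 Membranes from CHO cells transfected with the receptor were incubated with [3H]Spiperone (diluted to 2 nmol/L before addition) and compound for 30 min at 37° C. Buffer was Tris-HCl, pH 7.7, with NaCl, CaCl2, MgCl2 and KCl, and non-specific binding was defined with 10^−6 mol/l Butaclamol. Bound radioactivity was collected by filtration, counted by scintillation, and competition curves calculated as percent specific binding.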
# [3] = molecular target: T3, NET (norepinephrine transporter) (Rattus norvegicus, UniProt Q63380); assay: In vitro determination of NET reuptake inhibition ([3H]Nixosetine binding, rat brain cortex); settings: rat brain cortex; for IC50: read-out: NET pIC50 (converted)
# T3 construct: Cortex from rat brain was collected and homogenised; from tissue; host or cells: rat brain cortex
# T3 sequence (Q63380 1-617): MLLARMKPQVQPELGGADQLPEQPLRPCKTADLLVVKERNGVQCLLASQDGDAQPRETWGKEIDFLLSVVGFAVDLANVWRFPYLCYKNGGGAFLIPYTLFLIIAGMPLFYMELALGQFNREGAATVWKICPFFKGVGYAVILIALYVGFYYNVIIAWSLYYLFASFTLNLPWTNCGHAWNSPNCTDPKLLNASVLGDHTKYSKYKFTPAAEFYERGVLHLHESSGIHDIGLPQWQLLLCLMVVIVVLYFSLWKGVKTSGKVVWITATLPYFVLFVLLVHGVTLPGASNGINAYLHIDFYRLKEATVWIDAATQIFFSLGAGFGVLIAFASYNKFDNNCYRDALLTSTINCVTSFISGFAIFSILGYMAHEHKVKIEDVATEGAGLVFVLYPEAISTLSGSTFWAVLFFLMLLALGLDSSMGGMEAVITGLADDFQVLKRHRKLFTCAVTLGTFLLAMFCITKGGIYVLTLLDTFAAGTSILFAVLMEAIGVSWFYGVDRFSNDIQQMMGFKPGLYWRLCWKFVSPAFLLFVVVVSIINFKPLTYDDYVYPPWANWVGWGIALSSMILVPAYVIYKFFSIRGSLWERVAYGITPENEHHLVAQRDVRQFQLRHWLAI
# In short: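 Rat cortex homogenised in Tris 50 mM, NaCl 120 mM, KCl 5 mM, pH 7.4 was used for competition binding against [3H]nisoxetine. Bound radioligand was collected by filtration on GF/B filters and counted by scintillation. Percentage specific binding and competition curves were derived.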
# [4] = molecular target: T4, human cloned 5-HT2C receptor, expressed in CHO cells (Homo sapiens, UniProt P28335); assay: In vitro binding affinity for 5-HT2C receptor ([3H]mesulergine radioligand binding); settings: human cloned 5-HT2C receptor; for IC50: read-out: 5-HT2C pIC50 (converted)
# T4 construct: expressed in transfected cells; host or cells: CHO cells
# T4 sequence (P28335 33-458): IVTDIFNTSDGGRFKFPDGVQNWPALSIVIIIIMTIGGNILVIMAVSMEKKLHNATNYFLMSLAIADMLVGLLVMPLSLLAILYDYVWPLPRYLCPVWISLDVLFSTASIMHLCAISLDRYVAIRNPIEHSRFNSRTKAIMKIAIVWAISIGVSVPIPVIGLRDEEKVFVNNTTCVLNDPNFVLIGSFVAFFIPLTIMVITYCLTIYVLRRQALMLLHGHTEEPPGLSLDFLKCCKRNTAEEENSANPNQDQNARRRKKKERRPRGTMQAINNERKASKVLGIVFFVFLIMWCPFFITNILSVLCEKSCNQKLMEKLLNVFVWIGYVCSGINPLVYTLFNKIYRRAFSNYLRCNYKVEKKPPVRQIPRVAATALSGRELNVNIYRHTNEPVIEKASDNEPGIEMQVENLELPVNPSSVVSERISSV
# In short: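 Competition radioligand binding: varying test-compound concentrations incubated with receptor preparation and radioligand to binding equilibrium. Bound radioactivity separated from free and counted; affinity inferred from concentration-dependent inhibition of radioligand binding.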
# [5] = human cloned 5-HT2A receptor in L929 cells, [125I]R91150, read-out: 5-HT2A pIC50 (converted)
# T1 sequence (P28223 whole entry): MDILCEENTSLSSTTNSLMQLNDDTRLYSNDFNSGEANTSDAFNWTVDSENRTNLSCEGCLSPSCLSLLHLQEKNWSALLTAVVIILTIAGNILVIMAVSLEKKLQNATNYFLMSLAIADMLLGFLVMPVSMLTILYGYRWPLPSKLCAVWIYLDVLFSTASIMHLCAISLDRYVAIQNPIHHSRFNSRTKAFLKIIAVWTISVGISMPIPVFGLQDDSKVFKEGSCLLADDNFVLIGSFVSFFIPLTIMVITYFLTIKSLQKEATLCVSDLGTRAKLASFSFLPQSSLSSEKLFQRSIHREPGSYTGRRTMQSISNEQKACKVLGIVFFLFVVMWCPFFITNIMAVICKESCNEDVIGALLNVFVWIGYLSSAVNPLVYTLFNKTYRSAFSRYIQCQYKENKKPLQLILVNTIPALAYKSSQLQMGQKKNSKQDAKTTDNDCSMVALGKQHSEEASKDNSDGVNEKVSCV
SMILES,IC50 [1] [nM],IC50 [2] [nM],IC50 [3] [µM],IC50 [4] [nM],"IC50 [1, 5] [nM]","5-HT2A pIC50 ([1]; human cloned 5-HT2A receptor in L929 cells, [125I]R91150)",D2L pIC50 [2],NET pIC50 [3],5-HT2C pIC50 [4]
O=C(Cc1ccccc1)OC1CCN(CC2CC3c4ccccc4Cc4ccc(F)cc4C3O2)C1 (mixture of isomers) [Compound 18],6.03,10.2,1.78,3.63,–,–,–,–,–
CSc1ccc(NC(=O)C2CCN(CC3CC4c5ccccc5Cc5ccc(F)cc5C4O3)CC2)cc1 (centres unmarked) [Compound 183],–,25.7,> 10,1.15,< 10,–,–,–,–
CCOC(=O)CNC(=O)NC1CCN(CC2CC3c4ccccc4Cc4ccc(F)cc4C3O2)CC1 (centres unmarked) [Compound 242],–,3.98,2.88,4.07,1.2,–,–,–,–
CN1c2ccccc2[C@H]2C[C@@H](CN3CCC(O)C3)O[C@@H]2c2ccccc21 (relative stereo) [Compound 264],–,2240,4.17,19.1,166,–,–,–,–
N#CCCNC(=O)C1CCN(CC2CC3c4ccccc4Cc4ccc(F)cc4C3O2)CC1 (centres unmarked) [Compound 174],–,15.1,> 10,2.19,1.62,–,–,–,–
N#Cc1ccc(C(=O)NC2CCN(CC3CC4c5ccccc5Cc5ccc(F)cc5C4O3)CC2)cc1 (centres unmarked) [Compound 236],–,6.76,> 10,9.55,1.51,–,–,–,–
Fc1ccc2c(c1)C1OC(CN3CCN(Cc4cnc(-c5ccccc5)[nH]4)CC3)CC1c1ccccc1C2 (centres unmarked) [Compound 67],–,8.51,4.9,4.27,3.16,–,–,–,–
NCCN1CCN(CC2CC3c4ccccc4Cc4ccc(F)cc4C3O2)CC1 (centres unmarked) [Compound 47],–,10,> 10,34.7,6.46,–,–,–,–
O=C(NCC(O)CO)C1CCN(CC2CC3c4ccccc4Cc4ccc(F)cc4C3O2)CC1 (centres unmarked) [Compound 179],–,38,> 10,3.8,< 10,–,–,–,–
CCOC(=O)C1CCCCN1CC1CC2c3ccccc3Cc3ccc(F)cc3C2O1 (mixture of isomers) [Compound 158],–,355,> 10,33.1,23.4,–,–,–,–
Fc1ccc(OCCN2CCN(CC3CC4c5ccccc5Cc5ccc(F)cc5C4O3)CC2)cc1 (centres unmarked) [Compound 54],–,2.45,2.19,8.13,7.59,–,–,–,–
Fc1ccc2c(c1)C1OC(CN3CCN(CC=Cc4ccccc4)CC3)CC1c1ccccc1C2 (centres unmarked) [Compound 48],–,9.55,2.09,32.4,30.9,–,–,–,–
CC1CN(CC2CC3c4ccccc4Cc4ccc(F)cc4C3O2)C(C)CN1.O=C(O)C(=O)O (mixture of isomers) [Compound 280],–,–,–,–,–,6.53,5.40,<5,6.53
CC1(O)CCN(C[C@H]2C[C@@H]3c4ccccc4Cc4ccc(F)cc4[C@@H]3O2)C1 (some centres unmarked) [Compound 39],–,3.09,1.95,0.513,0.631,–,–,–,–
CN(C)CCC1CN(C[C@H]2C[C@@H]3c4ccccc4Cc4ccc(F)cc4[C@@H]3O2)CCO1 (some centres unmarked) [Compound 132],–,389,5.75,33.1,33.1,–,–,–,–
O=C(NC1CCCCCCC1)N1CCN(C[C@H]2C[C@@H]3c4ccccc4Cc4ccc(F)cc4[C@@H]3O2)CC1 [Compound 98],–,42.7,9.55,19.5,3.39,–,–,–,–
CCCCCCCCCCNC(=O)C1CCN(C[C@H]2C[C@@H]3c4ccccc4Cc4ccc(F)cc4[C@@H]3O2)CC1 [Compound 178],–,50.1,> 10,9.33,< 10,–,–,–,–
